Laboratory results taken from PubChem BioAssay (NCI).
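All cell lines were grown in 96-well plates and treated with compound for 48 hours. TGI denotes the concentration required for complete inhibition of growth.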 Where a SMILES comes first, the peptide text is derived from it. [ ]: non-standard residue; d: D form. The star is where a group is joined. mTyr = N[CH](Cc1cccc(O)c1)C(=O)O; Cbz = O=C(OCc1ccccc1)*; OBn = c1ccc(CO*)cc1

What was measured:
Experiment in all cases: DTP human tumour cell line panel, 48 h
A498 renal = tested on: A498 renal
A549 NSCLC = tested on: A549 NSCLC
HOP-62 NSCLC = tested on: HOP-62 NSCLC
HOP-92 NSCLC = tested on: HOP-92 NSCLC
M14 melanoma = tested on: M14 melanoma
NCI-H522 lung = tested on: NCI-H522 lung
SNB-19 CNS = tested on: SNB-19 CNS
SNB-75 CNS = tested on: SNB-75 CNS
SW-620 colon = tested on: SW-620 colon
SF-539 CNS = tested on: SF-539 CNS

| Compound | TGI (A498 renal) [µM] | TGI (A549 NSCLC) [µM] | TGI (HOP-62 NSCLC) [µM] | TGI (HOP-92 NSCLC) [µM] | TGI (M14 melanoma) [µM] | TGI (NCI-H522 lung) [µM] | TGI (SNB-19 CNS) [µM] | TGI (SNB-75 CNS) [µM] | TGI (SW-620 colon) [µM] | TGI (SF-539 CNS) [µM] |
| --- | --- | --- | --- | --- | --- | --- | --- | --- | --- | --- |
| O=C(CSC1=NCCN1)Nc1ccccc1 | > 100 | > 100 | > 100 | 91 | > 100 | 38.7 | > 100 | 43.5 | > 100 | – |
| Cc1nc(-c2ccc(N=Cc3ccc(N(CCOS(C)(=O)=O)CCOS(C)(=O)=O)cc3C)cc2)cs1 | 11.4 | > 100 | > 100 | – | > 100 | > 100 | > 100 | > 100 | > 100 | 8.84 |
| O=C(Nc1cccc(F)c1)c1cc2ccc(O)cc2oc1=Nc1ccccc1F | 35.6 | 13.8 | 24.6 | – | 17.4 | 10.3 | 21 | – | 45.4 | 27 |
| Nc1ccc(CCN2CCN(CCCc3ccccc3)CC2)cc1 | > 100 | > 100 | > 100 | – | > 100 | > 100 | > 100 | – | > 100 | > 100 |
| CCC1(COC(NC(=O)c2ccccc2)(C(F)(F)F)C(F)(F)F)COC1 | > 100 | > 100 | – | – | > 100 | – | > 100 | > 100 | > 100 | > 100 |
| CN(CCCNC(=O)c1nn(-c2ccc(Cl)cc2Cl)c2c1Cc1ccccc1-2)CCCNC(=O)c1nn(-c2ccc(Cl)cc2Cl)c2c1Cc1ccccc1-2 | 3.13 | 3.64 | 3.09 | 3.06 | 3.47 | 2.9 | 3.24 | 2.92 | 3.06 | – |
| COC(=O)C(Cc1cccc(O)c1)NC(=O)C(CC(=O)OCc1ccccc1)NC(=O)OCc1ccccc1 (configuration not stated) (Cbz-Asp(OBn)-[mTyr]-OMe; configuration not given here) | > 100 | > 100 | > 100 | > 100 | > 100 | – | > 100 | > 100 | > 100 | – |
| CCN(CC)Cc1sc2nc3ccccc3n2c1-c1ccc(OC)cc1 | 71.6 | > 100 | > 100 | > 100 | > 100 | > 100 | > 100 | > 100 | > 100 | – |
| CC(C)(C)OC(=O)NCCC1CN(C(=O)c2ccccc2)c2ccccc21 (configuration not stated) | > 100 | > 100 | 83.2 | 94.6 | 33.6 | 64.2 | > 100 | 75.2 | > 100 | – |
| C#CCOCC12C=CC(O1)C1C(=O)OCC12 (configuration not stated) | > 100 | > 100 | > 100 | – | > 100 | > 100 | > 100 | > 100 | > 100 | > 100 |
| COc1ccc(CSc2ccccc2Cn2cccc2)cc1OC | > 100 | > 100 | > 100 | – | – | – | > 100 | > 100 | > 100 | > 100 |
| CC(C)=C/C=C1/CS(=O)(=O)C=C1C | > 100 | > 100 | > 100 | – | > 100 | > 100 | > 100 | > 100 | > 100 | > 100 |
| Fc1ccccc1C1SCc2nc3cc4ccccc4cc3n21 (configuration not stated) | – | > 100 | > 100 | – | > 100 | > 100 | > 100 | > 100 | > 100 | – |
| COc1ccc2oc(=N)c(C(=O)Nc3ccccn3)cc2c1 | > 100 | > 100 | > 100 | > 100 | > 100 | – | > 100 | > 100 | > 100 | – |
| CN(C)CCCN1c2ccccc2CCc2ccc([N+](=O)[O-])cc21 | 40.3 | > 100 | 62.9 | – | 30.6 | 36.7 | > 100 | – | > 100 | – |
| CCOC(=O)c1ccc(C(=O)C(C(C)=O)C(=O)OC(C)(C)C)[nH]1 (configuration not stated) | > 100 | > 100 | > 100 | – | > 100 | > 100 | > 100 | > 100 | > 100 | – |
| CC(NC(C)(C)C)C(=O)c1cccc(Cl)c1 (configuration not stated) | > 100 | > 100 | > 100 | – | > 100 | > 100 | – | > 100 | > 100 | > 100 |
| C=CCOC(=O)C1C2OC3(C(C(=O)OC)=C2C(=O)OC)c2ccccc2CCC13 (configuration not stated) | > 10 | > 10 | > 10 | – | > 10 | – | > 10 | – | > 10 | > 10 |
| Cc1n[nH]c(=O)n1/N=C/c1ccc([N+](=O)[O-])o1 | 47.6 | 35.7 | > 64.4 | – | 26.6 | – | > 100 | > 100 | 37.8 | 37.1 |
| COC(=O)CC1NC(=O)C1C1(C)OCCO1 (configuration not stated) | > 100 | > 100 | > 100 | – | > 100 | – | > 100 | 97.7 | > 100 | > 100 |
